In ChEMBL document CHEMBL1201862, “PubChem BioAssay data set” (2004):
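How tested: cells in 96-well plates exposed to compound for 48 hours at five concentrations. GI50: concentration for 50% inhibition of growth.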 Activity calls are given as the source filed them. No stated cut-off is given here; in the data, active = GI50 up to about 1.1 µM and inactive = higher.

Assays:
Experiment in all cases: NCI-60 cell line screen, 48 h
MDA-MB-435 = test system: MDA-MB-435
EKVX = test system: EKVX
HOP-62 = test system: HOP-62
UO-31 = test system: UO-31
RPMI-8226 = test system: RPMI-8226
UACC-257 = test system: UACC-257
ACHN = test system: ACHN
SR = test system: SR
M14 = test system: M14
Hs-578T = test system: Hs-578T
MCF7 = test system: MCF7
NCI/ADR-RES = test system: NCI/ADR-RES
IGROV-1 = test system: IGROV-1
SK-OV-3 = test system: SK-OV-3
CCRF-CEM = test system: CCRF-CEM
A549 = test system: A549
SF-539 = test system: SF-539
T47D = test system: T47D
COLO 205 = test system: COLO 205
SNB-75 = test system: SNB-75
SNB-19 = test system: SNB-19
HL-60 = test system: HL-60
786-0 = test system: 786-0
SF-295 = test system: SF-295
NCI-H23 = test system: NCI-H23
Malme-3M = test system: Malme-3M
HCC 2998 = test system: HCC 2998
MOLT-4 = test system: MOLT-4
TK-10 = test system: TK-10
HOP-92 = test system: HOP-92
OVCAR-8 = test system: OVCAR-8
KM12 = test system: KM12
MDA-N = test system: MDA-N
OVCAR-5 = test system: OVCAR-5
OVCAR-3 = test system: OVCAR-3
BT-549 = test system: BT-549
HT-29 = test system: HT-29
K562 = test system: K562
HCT-15 = test system: HCT-15
NCI-H460 = test system: NCI-H460
PC-3 = test system: PC-3
DU-145 = test system: DU-145
SK-MEL-5 = test system: SK-MEL-5
NCI-H226 = test system: NCI-H226
HCT-116 = test system: HCT-116
UACC-62 = test system: UACC-62
A498 = test system: A498
SF-268 = test system: SF-268
SW-620 = test system: SW-620
U-251 = test system: U-251
RXF 393 = test system: RXF 393
SN12C = test system: SN12C
SK-MEL-28 = test system: SK-MEL-28
CAKI-1 = test system: CAKI-1
NCI-H522 = test system: NCI-H522
MDA-MB-231 = test system: MDA-MB-231
SK-MEL-2 = test system: SK-MEL-2
LOX IMVI = test system: LOX IMVI
OVCAR-4 = test system: OVCAR-4

Cc1ccc(C)n2c1nc1ccccc12 was tested, and the GI50 (MDA-MB-435) was > 100 µM (inactive), the GI50 (EKVX) was 62.7 µM (inactive) and the GI50 (HOP-62) was 85.5 µM (inactive). The GI50 (UO-31) was 91.4 µM (inactive), the GI50 (RPMI-8226) was > 100 µM (inactive) and the GI50 (UACC-257) was > 100 µM (inactive). For the same compound, the GI50 (ACHN) was > 100 µM (inactive), the GI50 (SR) was > 100 µM (inactive) and the GI50 (M14) was > 100 µM (inactive). For the same compound, the GI50 (Hs-578T) was > 100 µM (inactive), the GI50 (MCF7) was > 100 µM (inactive) and the GI50 (NCI/ADR-RES) was > 100 µM (inactive). The GI50 (IGROV-1) was > 100 µM (inactive), the GI50 (SK-OV-3) was > 100 µM (inactive) and the GI50 (CCRF-CEM) was > 100 µM (inactive). For the same compound, the GI50 (A549) was 33 µM (inactive), the GI50 (SF-539) was > 100 µM (inactive) and the GI50 (T47D) was > 100 µM (inactive). The GI50 (COLO 205) was > 100 µM (inactive), the GI50 (SNB-75) was 24.9 µM (inactive) and the GI50 (SNB-19) was > 100 µM (inactive). For the same compound, the GI50 (HL-60) was > 100 µM (inactive), the GI50 (786-0) was > 100 µM (inactive) and the GI50 (SF-295) was > 100 µM (inactive). The GI50 (NCI-H23) was > 100 µM (inactive), the GI50 (Malme-3M) was > 100 µM (inactive) and the GI50 (HCC 2998) was > 100 µM (inactive). For the same compound, the GI50 (MOLT-4) was 62.4 µM (inactive), the GI50 (TK-10) was > 100 µM (inactive) and the GI50 (HOP-92) was > 100 µM (inactive). The GI50 (OVCAR-8) was > 100 µM (inactive), the GI50 (KM12) was > 100 µM (inactive) and the GI50 (MDA-N) was > 100 µM (inactive). The GI50 (OVCAR-5) was > 100 µM (inactive), the GI50 (OVCAR-3) was > 100 µM (inactive) and the GI50 (BT-549) was > 100 µM (inactive). For the same compound, the GI50 (HT-29) was 31.9 µM (inactive), the GI50 (K562) was > 100 µM (inactive) and the GI50 (HCT-15) was > 100 µM. The GI50 (NCI-H460) was 25.5 µM (inactive), the GI50 (PC-3) was > 100 µM (inactive) and the GI50 (DU-145) was > 100 µM (inactive). The GI50 (SK-MEL-5) was 82.8 µM (inactive), the GI50 (NCI-H226) was > 100 µM (inactive) and the GI50 (HCT-116) was > 10 µM (inactive). The GI50 (UACC-62) was 80.5 µM (inactive), the GI50 (A498) was 1.46 µM (inactive) and the GI50 (SF-268) was > 100 µM (inactive). For the same compound, the GI50 (SW-620) was > 100 µM (inactive), the GI50 (U-251) was > 100 µM (inactive) and the GI50 (RXF 393) was 96.4 µM (inactive). The GI50 (SN12C) was > 100 µM (inactive) and the GI50 (SK-MEL-28) was > 100 µM (inactive).

In the case of Cc1ccc(C)c(NC(=O)/C(=N\N)C(c2cnc3ccc([N+](=O)[O-])cc3n2)[N+](=O)[O-])c1 (centres undefined), the GI50 (MDA-MB-435) is reported as 62.5 µM (inactive), the GI50 (CAKI-1) is reported as 39.4 µM (inactive) and the GI50 (EKVX) is reported as 43.3 µM (inactive). For the same compound, the GI50 (HOP-62) was 40 µM (inactive), the GI50 (UO-31) was 23.6 µM (inactive) and the GI50 (RPMI-8226) was 45.9 µM (inactive). The GI50 (UACC-257) was > 100 µM (inactive), the GI50 (ACHN) was 14.5 µM (inactive) and the GI50 (SR) was 74.1 µM (inactive). The GI50 (M14) was > 100 µM (inactive), the GI50 (Hs-578T) was 80.4 µM (inactive) and the GI50 (MCF7) was 60.8 µM (inactive). The GI50 (NCI/ADR-RES) was 32.2 µM (inactive), the GI50 (NCI-H522) was 19.7 µM (inactive) and the GI50 (IGROV-1) was 51.9 µM (inactive). The GI50 (SK-OV-3) was 67.5 µM (inactive), the GI50 (CCRF-CEM) was 4.99 µM (inactive) and the GI50 (A549) was 92.7 µM (inactive). The GI50 (SF-539) was > 100 µM (inactive), the GI50 (T47D) was 87.7 µM (inactive) and the GI50 (SNB-75) was > 100 µM (inactive). The GI50 (HL-60) was 52 µM (inactive), the GI50 (786-0) was > 100 µM (inactive) and the GI50 (SF-295) was > 100 µM (inactive). The GI50 (NCI-H23) was 70.8 µM (inactive), the GI50 (MDA-MB-231) was 37.8 µM (inactive) and the GI50 (SK-MEL-2) was 71.6 µM (inactive). The GI50 (Malme-3M) was 66.8 µM (inactive), the GI50 (HCC 2998) was 69.8 µM (inactive) and the GI50 (MOLT-4) was 54.5 µM (inactive). For the same compound, the GI50 (TK-10) was > 100 µM (inactive), the GI50 (HOP-92) was > 100 µM (inactive) and the GI50 (LOX IMVI) was 56.4 µM (inactive). The GI50 (OVCAR-8) was 37 µM (inactive), the GI50 (KM12) was 47.9 µM (inactive) and the GI50 (MDA-N) was > 100 µM (inactive). For the same compound, the GI50 (OVCAR-5) was > 100 µM (inactive), the GI50 (OVCAR-3) was 61.1 µM (inactive) and the GI50 (BT-549) was > 100 µM (inactive). For the same compound, the GI50 (HT-29) was 65.8 µM (inactive), the GI50 (K562) was > 100 µM (inactive) and the GI50 (HCT-15) was > 100 µM. For the same compound, the GI50 (NCI-H460) was 70.3 µM (inactive), the GI50 (PC-3) was 50.7 µM (inactive) and the GI50 (SK-MEL-5) was 41.6 µM (inactive). For the same compound, the GI50 (NCI-H226) was > 100 µM (inactive), the GI50 (HCT-116) was > 100 µM (inactive) and the GI50 (UACC-62) was > 100 µM (inactive). For the same compound, the GI50 (A498) was 83.2 µM (inactive), the GI50 (SF-268) was 93.5 µM (inactive) and the GI50 (SW-620) was > 100 µM (inactive). For the same compound, the GI50 (U-251) was > 100 µM (inactive), the GI50 (RXF 393) was > 100 µM (inactive) and the GI50 (SN12C) was > 100 µM (inactive). For the same compound, the GI50 (SK-MEL-28) was > 100 µM (inactive) and the GI50 (OVCAR-4) was 18.4 µM (inactive).
